Assay results from article PMC3813382 (The Journal of General Physiology, 2013).
Where a chain is given by its changes, count along the chain named. Entries after “also recorded” stand apart in the source; their conditions may differ.

Legend:
[1] = test system: endogenous currents present in uninjected oocytes; experiment: Effect of NFA on uninjected oocytes; format: cell-based, Xenopus laevis
F258A Slo2.1 channels = molecular target: T1, F258A Slo2.1 channels (Homo sapiens, UniProt Q6UVM3, F258A); experiment: Activation of ISlo2.1 by NFA, two-electrode voltage clamp in oocytes; format: cell-based
T1 sequence (Q6UVM3 1-1135 F258A): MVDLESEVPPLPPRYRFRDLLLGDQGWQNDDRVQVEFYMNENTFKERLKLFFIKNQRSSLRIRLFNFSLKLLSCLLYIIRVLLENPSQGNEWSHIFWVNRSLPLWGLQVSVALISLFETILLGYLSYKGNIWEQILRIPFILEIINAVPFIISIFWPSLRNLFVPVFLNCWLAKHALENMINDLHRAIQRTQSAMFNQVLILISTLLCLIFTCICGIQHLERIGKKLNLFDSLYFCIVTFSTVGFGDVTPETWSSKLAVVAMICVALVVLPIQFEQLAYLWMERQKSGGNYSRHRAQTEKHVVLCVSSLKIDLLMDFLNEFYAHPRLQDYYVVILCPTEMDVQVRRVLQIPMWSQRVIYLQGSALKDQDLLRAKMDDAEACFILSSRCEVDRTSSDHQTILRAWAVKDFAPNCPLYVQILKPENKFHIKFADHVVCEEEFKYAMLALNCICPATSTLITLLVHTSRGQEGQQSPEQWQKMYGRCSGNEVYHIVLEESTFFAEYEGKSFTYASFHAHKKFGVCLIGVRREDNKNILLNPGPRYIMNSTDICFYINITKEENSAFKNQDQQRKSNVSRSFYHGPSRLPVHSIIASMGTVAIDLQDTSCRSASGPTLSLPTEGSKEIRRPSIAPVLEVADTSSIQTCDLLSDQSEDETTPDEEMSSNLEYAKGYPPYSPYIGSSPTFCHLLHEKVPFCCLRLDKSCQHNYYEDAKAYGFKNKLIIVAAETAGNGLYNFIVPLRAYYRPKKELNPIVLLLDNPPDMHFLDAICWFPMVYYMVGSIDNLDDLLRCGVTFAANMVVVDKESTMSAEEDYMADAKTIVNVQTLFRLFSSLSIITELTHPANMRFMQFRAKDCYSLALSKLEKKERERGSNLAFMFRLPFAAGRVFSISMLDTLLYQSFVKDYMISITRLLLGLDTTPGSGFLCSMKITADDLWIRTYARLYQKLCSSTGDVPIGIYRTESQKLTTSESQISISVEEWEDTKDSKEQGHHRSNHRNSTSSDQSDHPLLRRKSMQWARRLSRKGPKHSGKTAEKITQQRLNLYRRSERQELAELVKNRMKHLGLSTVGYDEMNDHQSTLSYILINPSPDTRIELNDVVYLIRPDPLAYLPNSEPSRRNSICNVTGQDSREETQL

C236A Slo2.1 channels = molecular target: T2, C236A Slo2.1 channels (Homo sapiens, UniProt Q6UVM3, C236A); experiment: as above; format: cell-based; details: 1 mM NFA, 0 mV
T2 sequence (Q6UVM3 1-1135 C236A): T1 sequence (Q6UVM3 1-1135 F258A) with C236A, A258F

O=C(O)c1cccnc1Nc1cccc(C(F)(F)F)c1 [NFA, niflumic acid]
effect on endogenous currents in uninjected oocytes ([1]; 1 mM NFA, I-Vt relationships): reduced
effect on endogenous currents in uninjected oocytes ([1]; 6 mM NFA, I-Vt relationships): increased; also recorded: activated a relatively small endogenous current
effect on endogenous currents in uninjected oocytes ([1]; NFA at concentrations up to 1 mM): slightly reduced
EC50 (F258A Slo2.1 channels): 400 ± 50 µM
Hill coefficient nH of NFA activation (F258A Slo2.1 channels; F258A): 1.2 ± 0.08
response of C236A channels to NFA (C236A Slo2.1 channels): insensitive to 1 mM NFA
